Measured values taken from paper PMC7175203, “PIRT the TRP Channel Regulating Protein Binds Calmodulin and Cholesterol-Like Ligands” (Biomolecules, 2020).
One block for each molecule: values may come before it. Bridge positions count the residues as written; N and C are the ends. Ends that are not written are not given here.

What was measured:
[1] = biological target: T1, PIRT (Phosphoinositide-interacting regulator of TRP) (Homo sapiens, UniProt P0C851); assay: microscale thermophoresis; format: binding
T1 sequence (P0C851 whole entry): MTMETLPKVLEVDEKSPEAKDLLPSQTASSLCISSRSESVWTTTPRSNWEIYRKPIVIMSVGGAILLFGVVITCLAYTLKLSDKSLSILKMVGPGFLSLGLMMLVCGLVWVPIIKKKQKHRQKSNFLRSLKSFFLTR

[2] = biological target: T1, PIRT (Phosphoinositide-interacting regulator of TRP); assay: microscale thermophoresis; […]-PIRT HSQC NMR chemical shift perturbation; format: binding
Calmodulin (holo) = Calmodulin (holo) (UniProt P0DP23); assay: tryptophan fluorescence; details: cited from earlier work
[3] = biological target: T2, Human PIRT (phosphoinositide-interacting regulator of TRP), fluorescently labeled for MST (human, UniProt P0C851 1-137, fluorescently labeled (dye and site not stated; by the protocol of ref. 24)); assay: MST; 200 nM fluorescently labeled PIRT, peptide hormone titrated; 0.1% DPC (w/v), 50 mM HEPES, pH 7.0; room temperature; triplicate; details: both partners purified
T2 construct: Measured in 0.1% DPC micelles; The His tag is named only for the pull-down; also called MST labeled PIRT; source: purified
T2 sequence (P0C851 whole entry): as above

Molecule: C=C1CC[C@H](O)C/C1=C/C=C1\CCC[C@]2(C)[C@@H]([C@H](C)CCCC(C)C)CC[C@@H]12 [Cholecalciferol]
- Kd [1]: 2100 µM

Molecule: C[C@]12CCC(=O)C=C1CC[C@@H]1[C@@H]2[C@@H](O)C[C@@]2(C)[C@H]1CC[C@]2(O)C(=O)CO [Cortisol]
- Kd ([1]; read-out: Kd): 790 µM

Molecule: TRPV1 distal C-terminus (from UniProt O35433)
- Kd (Calmodulin (holo)): 0.054 µM

Other lines, results leading:

- Kd ([1]; read-out: Kd): 103 µM
Molecule: CC(C)CCC[C@@H](C)[C@H]1CC[C@H]2[C@@H]3CC=C4C[C@@H](OC(=O)CCC(=O)O)CC[C@]4(C)[C@H]3CC[C@]12C [cholesteryl-hemisuccinate]

- Kd [2]: 800 µM
Molecule: C[C@]12CC[C@@H]3c4ccc(O)cc4CC[C@H]3[C@@H]1CC[C@@H]2O [β-Estradiol]

- Kd [3]: 7 µM
B1: Oxytocin (peptide, UniProt P01178 20-28, looked up)
peptide: CYIQNCPLG-NH2
modifications: disulfide 1-6
notes: oxytocin, peptide hormone, cyclic nonapeptide cut from the oxytocin-neurophysin 1 precursor
